This is an account of results in paper PMC9449960, “Pamoic acid is an inhibitor of HMGB1·CXCL12 elicited chemotaxis and reduces inflammation in murine models of Pseudomonas aeruginosa pneumonia” (Molecular Medicine, 2022).

For one assay, the target named is T1, CXCL12 (Homo sapiens, UniProt P48061).
T1 construct: recombinant human CXCL12
As to the kind of experiment: NMR titration of […]-CXCL12 (chemical shift perturbation). The format is binding.

Another assay deals with T2, HMGB1 (Mus musculus, UniProt P63158).
T2 construct: residues 1–215
T2 sequence (P63158 1-215): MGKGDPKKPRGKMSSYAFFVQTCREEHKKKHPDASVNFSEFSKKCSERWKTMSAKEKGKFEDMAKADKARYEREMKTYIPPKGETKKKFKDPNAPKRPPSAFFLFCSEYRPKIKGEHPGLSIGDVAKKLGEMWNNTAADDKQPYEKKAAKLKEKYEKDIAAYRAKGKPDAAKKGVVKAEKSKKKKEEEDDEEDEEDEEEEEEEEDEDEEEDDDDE
The assay can be described thus: NMR 1H-15N HSQC titration with lineshape analysis; STD, waterLOGSY, NOEs. The assay is classed as binding.

T1 sequence (P48061 22-93): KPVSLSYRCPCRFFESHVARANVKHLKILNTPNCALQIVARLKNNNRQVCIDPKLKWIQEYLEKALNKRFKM

For `O=C(O)c1cc2ccccc2c(Cc2c(O)c(C(=O)O)cc3ccccc23)c1O` [PAM, pamoic acid], the equilibrium dissociation constant (Kd) was 66 ± 4 µM on CXCL12 and 170 ± 17 µM at HMGB1.
